Target: T1, hSTING (Homo sapiens, UniProt Q86WV6, G230A/H232R/R293Q/R71H)
T1 construct: host or cells: THP1-Dual KO-IFNAR2 cells
Experiment: STING reporter assay (luciferase) in THP1-Dual KO-IFNAR2 cells stimulated with 2′3′cGAMP
Format: cell-based
Conditions: 15 μM 2′3′cGAMP, 24 h
Procedure: STING pathway activation by the compounds described herein was measured using THP1-Dual™ cells (KO-IFNAR2).
THP1-Dual™ KO-IFNAR2 Cells (obtained from invivogen) were maintained in RPMI, 10% FCS, 5 ml P/S, 2 mM L-glut, 10 mM Hepes, and 1 mM sodium pyruvate. Compounds were spotted in empty 384 well tissue culture plates (Greiner 781182) by Echo for a final concentration of 0.0017-100 μM. Cells were plated into the TC plates […], 2×10E6 cells/mL. For activation with STING ligand, 2′3′cGAMP (MW 718.38, obtained from Invivogen), was prepared in Optimem media.
The following solutions were prepared for each 1×384 plate: • Solution A: 2 mL Optimem with one of the following stimuli: • 60 μL of 10 mM 2′3′cGAMP->150 μM stock • Solution B: 2 mL Optimem with 60 μL Lipofectamine 2000->Incubate 5 min at RT
2 mL of solution A and 2 ml Solution B was mixed and incubated for 20 min at room temperature (RT). 20 uL of transfection solution (A+B) was added on top of the plated cells, with a final 2′3′cGAMP concentration of 15 μM. The plates were then centrifuged immediately at 340 g for 1 minute, after which they were incubated at 37° C., 5% CO2, >98% humidity for 24 h. Luciferase reporter activity was then measured. EC50 values were calculated by using standard methods known in the art.
Luciferase reporter assay: 10 μL of supernatant from the assay was transferred to white 384-plate with flat bottom and squared wells. One pouch of QUANTI-Luc™ Plus was dissolved in 25 mL of water. 100 μL of QLC Stabilizer per 25 mL of QUANTI-Luc™ Plus solution was added. 50 μL of QUANTI-Luc™ Plus/QLC solution per well was then added. Luminescence was measured on a Platereader (e.g., Spectramax I3X (Molecular Devices GF3637001)).
Luciferase reporter activity was then measured. EC50 values were calculated by using standard methods known in the art.

T1 sequence (Q86WV6 whole entry R71H/G230A/H232R/R293Q): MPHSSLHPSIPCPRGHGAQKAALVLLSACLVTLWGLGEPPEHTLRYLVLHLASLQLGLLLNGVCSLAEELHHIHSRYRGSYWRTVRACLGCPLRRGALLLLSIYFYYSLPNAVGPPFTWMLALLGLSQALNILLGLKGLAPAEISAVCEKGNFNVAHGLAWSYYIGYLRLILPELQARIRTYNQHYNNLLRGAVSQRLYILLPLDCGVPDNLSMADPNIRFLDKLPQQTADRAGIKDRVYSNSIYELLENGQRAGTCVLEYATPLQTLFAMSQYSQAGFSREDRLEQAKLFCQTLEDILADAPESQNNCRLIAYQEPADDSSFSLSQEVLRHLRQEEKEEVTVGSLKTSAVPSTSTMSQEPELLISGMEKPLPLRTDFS

EC50 (class symbols) [nM]	EC50 (numeric bounds) [nM]	Compound
1000 to 5000	–	O=C(NCc1ccc(-c2ccccc2C(F)(F)F)cc1)C(=O)Nc1c[nH]c2cccnc12 [Compound 110, N^1-(1H-pyrrolo[3,2-b]pyridin-3-yl)-N^2-((2′-(trifluoromethyl)-[1,1′-biphenyl]-4-yl)methyl)oxalamide]
200 to 1000	–	COc1ccc2[nH]cc(NC(=O)C(=O)NCc3ccc(C)c(C(F)(F)F)c3)c2n1 [Compound 215]
200 to 1000	–	O=C(NCc1ccc(Cl)c(C(F)(F)F)c1)C(=O)Nc1c[nH]c2ccncc12 [Compound 171, N1-(4-chloro-3-(trifluoromethyl)-benzyl)-N2-(1H-pyrrolo[3,2-c]pyridin-3-yl)oxalamide]
5000 to 100000	–	O=C(Nc1c[nH]c2ncc(F)cc12)C(=O)NC1CCC2(CCCCC2)C1 (centres unmarked) [Compound 204, N-(5-fluoro-1H-pyrrolo[2,3-b]pyridin-3-yl)-N′-(spiro[4.5]decan-2-yl)oxalamide]
200 to 1000	–	Cc1cc(NC(=O)C(=O)Nc2c[nH]c3ccncc23)cc(C(F)(F)F)c1 [Compound 115, N^1-(3-methyl-5-(trifluoromethyl)phenyl)-N^2-(1H-pyrrolo[3,2-c]pyridin-3-yl)oxalamide]
1000 to 5000	–	Cc1ccccc1N1C2CCC1CC(NC(=O)C(=O)Nc1c[nH]c3ncc(F)cc13)C2 (centres unmarked) [Compound 209, N-[5-fluoro-1H-pyrrolo[2,3-b]pyridin-3-yl]-N′-[8-(2-methylphenyl)-8-azabicyclo[3.2.1]octan-3-yl]ethanediamide]
5000 to 100000	–	O=C(NCCc1ncc(C(F)(F)F)cc1Cl)C(=O)Nc1c[nH]c2ccncc12 [Compound 166, N1-(2-(3-chloro-5-(trifluoromethyl)-pyridin-2-yl)ethyl)-N2-(1H-pyrrolo[3,2-c]pyridin-3-yl)oxalamide]
200 to 1000	–	O=C(NCCc1ccc(C(F)(F)F)cc1)C(=O)Nc1c[nH]c2ccncc12 [Compound 153, N1-(1H-pyrrolo[3,2-c]pyridin-3-yl)-N2-(4-(trifluoromethyl)-phenethyl)-oxalamide]
–	> 30000	O=C(NCC1CCc2ccccc2O1)C(=O)Nc1c[nH]c2cccnc12 (centres unmarked) [Compound 132, N1-(chroman-2-ylmethyl)-N2-(1H-pyrrolo[3,2-b]pyridin-3-yl)oxalamide]
200 to 1000	–	O=C(NCc1ccc(OC(F)(F)F)c(Cl)c1)C(=O)Nc1c[nH]c2ccncc12 [Compound 211]
1000 to 5000	–	O=C(Nc1c[nH]c2ccncc12)C(=O)NC1CCC2(CCCCC2)CC1 [Compound 121, N^1-(1H-pyrrolo[3,2-c]pyridin-3-yl)-N^2-(spiro[5.5]undecan-3-yl)oxalamide]
5000 to 100000	–	Cc1ccc(OCCNC(=O)C(=O)Nc2c[nH]c3ccncc23)cc1C [Compound 157, N1-(2-(3,4-dimethylphenoxy)ethyl)-N2-(1H-pyrrolo[3,2-c]pyridin-3-yl)oxalamide]
1000 to 5000	–	COc1cc2c(NC(=O)C(=O)NCc3ccc(C)c(C(F)(F)F)c3)c[nH]c2cn1 [Compound 214]
200 to 1000	–	Cc1cc(NC(=O)C(=O)Nc2c[nH]c3cccnc23)cc(C(F)(F)F)c1 [Compound 107, N^1-(3-methyl-5-(trifluoromethyl)phenyl)-N^2-(1H-pyrrolo[3,2-b]pyridin-3-yl)oxalamide]
1000 to 5000	–	O=C(Nc1ccc(C(F)(F)F)c(Cl)c1)C(=O)Nc1c[nH]c2cccnc12 [Compound 217]
200 to 1000	–	O=C(Nc1ccc(C2CCCCC2)cn1)C(=O)Nc1c[nH]c2ccc(Br)nc12 [Compound 210]
1000 to 5000	–	O=C(Nc1ccc(C(F)(F)F)cn1)C(=O)Nc1c[nH]c2ccncc12 [Compound 113, N^1-(1H-pyrrolo[3,2-c]pyridin-3-yl)-N^2-(5-(trifluoromethyl)pyridin-2-yl)oxalamide]
–	> 30000	O=C(NCCc1cccc(C(F)(F)F)c1)C(=O)Nc1c[nH]c2cccnc12 [Compound 149, N1-(1H-pyrrolo[3,2-b]pyridin-3-yl)-N2-(3-(trifluoromethyl)phenethyl)oxalamide]
200 to 1000	–	O=C(Nc1ccc(C(F)(F)F)c(Cl)c1)C(=O)Nc1c[nH]c2ccncc12 [Compound 216]
–	> 30000	O=C(NCCc1ncc(C(F)(F)F)cc1Cl)C(=O)Nc1c[nH]c2cccnc12 [Compound 139, N1-(2-(3-chloro-5-(trifluoromethyl)pyridin-2-yl)ethyl)-N2-(1H-pyrrolo[3,2-b]pyridin-3-yl)oxalamide]
200 to 1000	–	O=C(Nc1c[nH]c2ncc(F)cc12)C(=O)NC1CCC2(CCCC2)CC1 [Compound 198, N-(5-fluoro-1H-pyrrolo[2,3-b]pyridin-3-yl)-N′-(spiro[4.5]decan-8-yl)oxalamide]
200 to 1000	–	O=C(NCc1ccc(F)c(OC(F)(F)F)c1)C(=O)Nc1c[nH]c2ccncc12 [Compound 148, N1-(4-fluoro-3-(trifluoromethoxy)-benzyl)-N2-(1H-pyrrolo[3,2-c]pyridin-3-yl)oxalamide]

More lines, now with the values behind:

Compound	EC50 (class symbols) [nM]	EC50 (numeric bounds) [nM]
O=C(NCC12CC3CC(CC(C3)C1)C2)C(=O)Nc1c[nH]c2ncc(F)cc12 [Compound 105, N^1-(adamantan-1-ylmethyl)-N^2-(5-fluoro-1H-pyrrolo[2,3-b]pyridin-3-yl)oxalamide]	5000 to 100000	–
O=C(NCC12CC3CC(CC(C3)C1)C2)C(=O)Nc1c[nH]c2ccncc12 [Compound 124, N^1-(adamantan-1-ylmethyl)-N^2-(1H-pyrrolo[3,2-c]pyridin-3-yl)oxalamide]	1000 to 5000	–
O=C(NCc1cccc(OC(F)(F)F)c1)C(=O)Nc1c[nH]c2ccncc12 [Compound 173, N1-(1H-pyrrolo[3,2-c]pyridin-3-yl)-N2-(3-(trifluoromethoxy)-benzyl)oxalamide]	1000 to 5000	–
O=C(NCc1ccc(Cl)c(C(F)(F)F)c1)C(=O)Nc1c[nH]c2cccnc12 [Compound 145, N1-(4-chloro-3-(trifluoromethyl)benzyl)-N2-(1H-pyrrolo[3,2-b]pyridin-3-yl)oxalamide]	1000 to 5000	–
O=C(Nc1c[nH]c2ncc(F)cc12)C(=O)N[C@H]1CCC2(CCCC2)C1 (single isomer, unassigned) [Compound 199]	5000 to 100000	–
O=C(Nc1c[nH]c2ncc(F)cc12)C(=O)N[C@@H]1CCCC2(CCCCC2)C1 (single isomer, unassigned) [Compound 197, N-[5-fluoro-1H-pyrrolo[2,3-b]pyridin-3-yl]-N′-[(2R or 2S)-spiro[5.5]undecan-2-yl]ethanediamide]	5000 to 100000	–
Cc1c(CNC(=O)C(=O)Nc2c[nH]c3ccncc23)cccc1C(F)(F)F [Compound 142, N1-(2-methyl-3-(trifluoromethyl)-benzyl)-N2-(1H-pyrrolo[3,2-c]pyridin-3-yl)oxalamide]	200 to 1000	–
O=C(Nc1c[nH]c2ncc(F)cc12)C(=O)N[C@H]1CCCC2(CCCCC2)C1 (single isomer, unassigned) [Compound 196, N-[5-fluoro-1H-pyrrolo[2,3-b]pyridin-3-yl]-N′-[(2S or 2R)-spiro[5.5]undecan-2-yl]ethanediamide]	1000 to 5000	–
Cc1cc(F)c(Cl)cc1NC(=O)C(=O)Nc1c[nH]c2cccnc12 [Compound 136, N1-(5-chloro-4-fluoro-2-methylphenyl)-N2-(1H-pyrrolo[3,2-b]pyridin-3-yl)oxalamide]	5000 to 100000	–
Cc1ccc(CNC(=O)C(=O)Nc2c[nH]c3ccncc23)cc1C(F)(F)F [Compound 119, N^1-(4-methyl-3-(trifluoromethyl)benzyl)-N^2-(1H-pyrrolo[3,2-c]pyridin-3-yl)oxalamide]	200 to 1000	–
Cc1ccc2[nH]cc(NC(=O)C(=O)Nc3cnc(N4CCC(F)(F)CC4)c(Cl)c3)c2n1 [Compound 195, N-(5-chloro-6-(4,4-difluoropiperidin-1-yl)pyridin-3-yl)-N′-(5-methyl-1H-pyrrolo[3,2-b]pyridin-3-yl)oxalamide]	1000 to 5000	–
O=C(NCc1ccc(Cl)c(OC(F)(F)F)c1)C(=O)Nc1c[nH]c2ccncc12 [Compound 212]	200 to 1000	–
O=C(NCC1CCc2ccccc2O1)C(=O)Nc1c[nH]c2ccncc12 (centres unmarked) [Compound 154, N1-(chroman-2-ylmethyl)-N2-(1H-pyrrolo[3,2-c]pyridin-3-yl)oxalamide]	–	> 30000
O=C(NCc1cccc(OC(F)(F)F)c1)C(=O)Nc1c[nH]c2cccnc12 [Compound 151, N1-(1H pyrrolo[3,2-b]pyridin-3-yl)-N2-(3-(trifluoro-methoxy)benzyl)oxalamide]	–	> 30000
Cc1c(CNC(=O)C(=O)Nc2c[nH]c3cccnc23)cccc1C(F)(F)F [Compound 138, N1-(2-methyl-3-(trifluoromethyl)benzyl)-N2-(1H-pyrrolo[3,2-b]pyridin-3-yl)oxalamide]	200 to 1000	–
O=C(NCC1(c2ccccc2)CC1)C(=O)Nc1c[nH]c2ccncc12 [Compound 156, N1-((1-phenylcyclopropyl)-methyl)-N2-(1H-pyrrolo[3,2-c]pyridin-3-yl)oxalamide]	–	> 30000

— patent US20230002373A1, “COMPOUNDS AND COMPOSITIONS FOR TREATING CONDITIONS ASSOCIATED WITH STING ACTIVITY” (IFM Due, Inc., priority 2019, published 2023)
